Laboratory results from ChEMBL document CHEMBL5244230, “Artemisinin-derived hybrids and their anticancer activity” (Eur J Med Chem, 2020).

How the values were obtained:
[1] = system: SiHa; assay: Cytotoxicity against human SiHa cells assessed as cell growth inhibition measured after 48 hrs by MTT assay; type: functional
[2] = system: A 172; assay: Cytotoxicity against human A-172 cells assessed as cell growth inhibition measured after 48 hrs by MTT assay; type: functional
[3] = Cytotoxicity against human U87 cells assessed as cell growth inhibition measured after 48 hrs by MTT assay; type: functional, U-87MG ATCC; details: U-87 MG
[4] = system: B16; assay: Cytotoxicity against mouse B16 cells assessed as cell growth inhibition measured after 48 hrs by MTT assay; type: functional
[5] = system: DLD-1; assay: Cytotoxicity against human DLD-1 cells assessed as cell growth inhibition measured after 48 hrs by MTT assay; type: functional
[6] = system: HeLa; assay: Cytotoxicity against human HeLa cells assessed as cell growth inhibition measured after 48 hrs by MTT assay; type: functional
[7] = system: HT-29; assay: Antiproliferative activity against human HT-29 cells assessed as reduction in cell viability measured for 72 hrs by MTT assay; type: functional, cell-based; details: HT-29, 72 h
[8] = system: HeLa; assay: Antiproliferative activity against human HeLa cells assessed as reduction in cell viability measured for 72 hrs by MTT assay; type: functional, cell-based
[9] = system: A549; assay: Antiproliferative activity against human A549 cells assessed as reduction in cell viability measured for 72 hrs by MTT assay; type: functional, cell-based; details: A549, 72 h
[10] = system: NCI-H460; assay: Antiproliferative activity against human NCI-H460 cells assessed as reduction in cell viability measured for 72 hrs by MTT assay; type: functional, cell-based; details: NCI-H460, 72 h
[11] = system: MDA-MB-231; assay: Antiproliferative activity against human MDA-MB-231 cells assessed as reduction in cell viability measured for 72 hrs by MTT assay; type: functional, cell-based; details: MDA-MB-231, 72 h

SMILES | GI50 [1] | GI50 [2] | GI50 [3] | GI50 [4] | GI50 [5] | GI50 [6] | IC50 [7] | IC50 [8] | IC50 [9] | IC50 [10] | IC50 [11]
C[C@@H]1[C@@H](n2cc(-c3ccccc3)nn2)O[C@@H]2O[C@@]3(C)CC[C@H]4[C@H](C)CC[C@@H]1[C@@]24OO3 | 0.03 µM | 0.03 µM | 0.03 µM | 0.03 µM | 0.03 µM | 0.03 µM | – | – | – | – | –
COc1ccc(-c2cn([C@@H]3O[C@@H]4O[C@@]5(C)CC[C@H]6[C@H](C)CC[C@@H]([C@H]3C)[C@@]46OO5)nn2)cc1 | 0.05 µM | 0.05 µM | 0.05 µM | 0.05 µM | 0.05 µM | 0.05 µM | – | – | – | – | –
CCCCCc1ccc(-c2cn([C@@H]3O[C@@H]4O[C@@]5(C)CC[C@H]6[C@H](C)CC[C@@H]([C@H]3C)[C@@]46OO5)nn2)cc1 | 0.05 µM | 0.05 µM | 0.05 µM | 0.05 µM | 0.05 µM | 0.05 µM | – | – | – | – | –
C[C@H]1[C@H](n2cc(-c3ccccc3)nn2)O[C@@H]2O[C@@]3(C)CC[C@H]4[C@H](C)CC[C@@H]1[C@@]24OO3 | 0.05 µM | 0.05 µM | 0.05 µM | 0.05 µM | 0.05 µM | 0.05 µM | – | – | – | – | –
C[C@H]1[C@H](n2cc(-c3cc(F)cc(F)c3)nn2)O[C@@H]2O[C@@]3(C)CC[C@H]4[C@H](C)CC[C@@H]1[C@@]24OO3 | 0.05 µM | 0.05 µM | 0.05 µM | 0.05 µM | 0.05 µM | 0.05 µM | – | – | – | – | –
Cc1ccc(-c2cn(C3O[C@@H]4O[C@@]5(C)CC[C@H]6[C@H](C)CC[C@@H]([C@H]3C)[C@@]46OO5)nn2)cc1 (stereo partly specified) | 0.05 µM | 0.05 µM | 0.05 µM | 0.05 µM | 0.05 µM | 0.05 µM | – | – | – | – | –
C[C@@H]1CC[C@H]2[C@@H](C)C(n3cc(-c4ccc(F)cc4)nn3)O[C@@H]3O[C@@]4(C)CC[C@@H]1[C@]32OO4 (stereo partly specified) | 0.05 µM | 0.05 µM | 0.05 µM | 0.05 µM | 0.05 µM | 0.05 µM | – | – | – | – | –
C[C@H]1[C@H](n2cc(-c3ccccc3C(F)(F)F)nn2)O[C@@H]2O[C@@]3(C)CC[C@H]4[C@H](C)CC[C@@H]1[C@@]24OO3 | 0.05 µM | 0.05 µM | 0.05 µM | 0.05 µM | 0.05 µM | 0.05 µM | – | – | – | – | –
C[C@H]1[C@H](n2nncc2-c2ccc(F)cc2)O[C@@H]2O[C@@]3(C)CC[C@H]4[C@H](C)CC[C@@H]1[C@@]24OO3 | 0.04 µM | 0.04 µM | 0.04 µM | 0.04 µM | 0.04 µM | 0.04 µM | – | – | – | – | –
C[C@@H]1[C@@H](n2cc(-c3cc(F)cc(F)c3)nn2)O[C@@H]2O[C@@]3(C)CC[C@H]4[C@H](C)CC[C@@H]1[C@@]24OO3 | 0.03 µM | 0.03 µM | 0.03 µM | 0.03 µM | 0.03 µM | 0.03 µM | – | – | – | – | –
CCCCCc1ccc(-c2cn([C@H]3O[C@@H]4O[C@@]5(C)CC[C@H]6[C@H](C)CC[C@@H]([C@@H]3C)[C@@]46OO5)nn2)cc1 | 0.03 µM | 0.03 µM | 0.03 µM | 0.03 µM | 0.03 µM | 0.03 µM | – | – | – | – | –
C[C@H]1[C@H](n2nncc2-c2ccc(Cl)cc2)O[C@@H]2O[C@@]3(C)CC[C@H]4[C@H](C)CC[C@@H]1[C@@]24OO3 | 0.04 µM | 0.04 µM | 0.04 µM | 0.04 µM | 0.04 µM | 0.04 µM | – | – | – | – | –
C[C@H]1[C@@H](NC(=O)COCc2ccc(/C=C/C(=O)c3ccccc3)cc2)O[C@@H]2O[C@@]3(C)CC[C@H]4[C@H](C)CC[C@@H]1[C@@]24OO3 | – | – | – | – | – | – | 1.7 µM | 1.7 µM | 1.7 µM | 1.7 µM | 1.7 µM
C[C@H]1[C@@H](NC(=O)COCc2ccc(/C=C/C(=O)c3ccc(F)cc3)cc2)O[C@@H]2O[C@@]3(C)CC[C@H]4[C@H](C)CC[C@@H]1[C@@]24OO3 | – | – | – | – | – | – | 1.7 µM | 1.7 µM | 1.7 µM | 1.7 µM | 1.7 µM
Cc1ccc(-c2cn([C@H]3O[C@@H]4O[C@@]5(C)CC[C@H]6[C@H](C)CC[C@@H]([C@@H]3C)[C@@]46OO5)nn2)cc1 | 0.03 µM | 0.03 µM | 0.03 µM | 0.03 µM | 0.03 µM | 0.03 µM | – | – | – | – | –
Cc1ccc(-c2cnnn2[C@@H]2O[C@@H]3O[C@@]4(C)CC[C@H]5[C@H](C)CC[C@@H]([C@H]2C)[C@@]35OO4)cc1 | 0.04 µM | 0.04 µM | 0.04 µM | 0.04 µM | 0.04 µM | 0.04 µM | – | – | – | – | –
C[C@H]1[C@@H](NC(=O)COCc2ccc(/C=C/C(=O)c3cccc(Cl)c3)cc2)O[C@@H]2O[C@@]3(C)CC[C@H]4[C@H](C)CC[C@@H]1[C@@]24OO3 | – | – | – | – | – | – | 1.7 µM | 1.7 µM | 1.7 µM | 1.7 µM | 1.7 µM
COc1ccc(-c2cn([C@H]3O[C@@H]4O[C@@]5(C)CC[C@H]6[C@H](C)CC[C@@H]([C@@H]3C)[C@@]46OO5)nn2)cc1 | 0.03 µM | 0.03 µM | 0.03 µM | 0.03 µM | 0.03 µM | 0.03 µM | – | – | – | – | –
C[C@@H]1[C@@H](n2cc(-c3ccc(F)cc3)nn2)O[C@@H]2O[C@@]3(C)CC[C@H]4[C@H](C)CC[C@@H]1[C@@]24OO3 | 0.03 µM | 0.03 µM | 0.03 µM | 0.03 µM | 0.03 µM | 0.03 µM | – | – | – | – | –
C[C@@H]1CC[C@H]2[C@@H](C)C(n3cc(-c4cccc(Cl)c4)nn3)O[C@@H]3O[C@@]4(C)CC[C@@H]1[C@]32OO4 (stereo partly specified) | 0.05 µM | 0.05 µM | 0.05 µM | 0.05 µM | 0.05 µM | 0.05 µM | – | – | – | – | –
C[C@@H]1[C@@H](n2cc(-c3cccc(Cl)c3)nn2)O[C@@H]2O[C@@]3(C)CC[C@H]4[C@H](C)CC[C@@H]1[C@@]24OO3 | 0.03 µM | 0.03 µM | 0.03 µM | 0.03 µM | 0.03 µM | 0.03 µM | – | – | – | – | –
C[C@@H]1[C@@H](n2cc(-c3ccccc3C(F)(F)F)nn2)O[C@@H]2O[C@@]3(C)CC[C@H]4[C@H](C)CC[C@@H]1[C@@]24OO3 | 0.03 µM | 0.03 µM | 0.03 µM | 0.03 µM | 0.03 µM | 0.03 µM | – | – | – | – | –
CCCCCc1ccc(-c2cnnn2[C@@H]2O[C@@H]3O[C@@]4(C)CC[C@H]5[C@H](C)CC[C@@H]([C@H]2C)[C@@]35OO4)cc1 | 0.04 µM | 0.04 µM | 0.04 µM | 0.04 µM | 0.04 µM | 0.04 µM | – | – | – | – | –
C[C@H]1[C@H](n2nncc2-c2ccccc2)O[C@@H]2O[C@@]3(C)CC[C@H]4[C@H](C)CC[C@@H]1[C@@]24OO3 | 0.04 µM | 0.04 µM | 0.04 µM | 0.04 µM | 0.04 µM | 0.04 µM | – | – | – | – | –
